Assay results from patent publication US20260234188A1, “CHEMOKINE-BINDING PEPTIDES” (Oxford University Innovation Limited, priority 2022, published 2026).
Entries after “also recorded” stand apart in the source; their conditions may differ.

system: panel of up to 42 human chemokines; test: Phage-display next generation sequencing screen of overlapping hexadecapeptide libraries, chemokines displayed on streptavidin beads; format: binding; settings: log2E greater than 5, chemokines named by first part of UniProt Entry Name, peptides binding complement C5a (control) excluded
Source text: FIG. 1. Exemplar results from phage display screens. Phage-display libraries were constructed and analysed as described in (McLaughlin, 2013) (Tonikian, 2007). […] FIG. 1A, CC chemokines against evasin A library. FIG. 1B, CXC chemokines against the evasin B library. FIG. 1C, CXC and CX3C chemokines against the viral chemokine binding protein library. FIG. 1D, CXC chemokines against the chemokine library. […] Identified hexadecapeptides were mapped to the position in the originating protein (x-axis) and to fold enrichment (log 2 E, left y-axis). Regions of interest (ROI) were defined where the cumulative residue log 2 E, (clog 2 E:r, right y-axis) exceeds the 95% upper confidence interval of the median clog 2 E:r for the entire protein (indicated as a horizontal dotted line in each panel). Proteins are referred to by their UniProt ID.
Hexadecapeptides were identified using a phage-display next generation sequencing approach (McLaughlin, 2013). Libraries containing a total of 55662 overlapping peptides (from the tick chemokine binding proteins shown in Tables 3A and 3B, the viral chemokine binding proteins shown in Table 3C, the human chemokines shown in Table 3 E, and the human/viral chemokine receptors and other chemokine-binding proteins shown in Table 3D) were first constructed, and then screened against a panel of up to 42 human chemokines, as shown in Table 3F.

Row | Substance | Chemokines Bound
1 | CR6041 (FSAILLYIDDFSAYFS) | CCL17, CCL18,; also recorded: X3CL1, IL8
2 | CR6044 (FSALVTLITSLFGSIF) | CCL2, X3CL1,; also recorded: CXL10, IL8
3 | CR6068 (FSFFYVIFSKALHDVT) | CCL1, CCL18, and CCL22, CCL28, and SDF1
4 | CR6097 (FSIFWWIFAVIIAIPH) | CXL10, SDF1,; also recorded: IL8, CCL1,; also recorded: CCL15, CCL22,; also recorded: CCL5, X3CL1,; also recorded: CXL11, CXL13
5 | CR6098 (FSIIAVFYFLLARAIS) | CCL17, CCL20,; also recorded: CCL22, CXL10,; also recorded: CXL11, CXL13,; also recorded: CXL14, IL8
6 | CR6163 (FSRAIDIIYSLITSSN) | CCL17, CCL18,; also recorded: CCL2, CCL22,; also recorded: CCL28, X3CL1,; also recorded: CXL14
7 | CR6212 (FSTFSGMLVYILLLPV) | CXL11, CXL13, and IL8
8 | CR6269 (FTGMPPADEDYSPCML) | CCL11, CCL17,; also recorded: CCL18, CCL19,; also recorded: CCL20
9 | CR6324 (FTWNLVLSQFFSILAT) | CCL11, CCL28,; also recorded: X3CL1, CXL11,; also recorded: CXL13
10 | CR6489 (FWAVDAVANWYFGNFL) | CCL17, CCL18, and CCL22, CCL28, and CXL10, CXL14, and IL8
11 | CR6515 (FWTPYNIVLFLETLVE) | CCL20, CCL22, and CXL10, CXL13, and IL8
12 | CR6520 (FWWIFAVIIAIPHFMV) | CXL10, CXL11
13 | CR6558 (FYISLFAGVSFLINLS) | CCL17, CCL18,; also recorded: CCL19, CCL20,; also recorded: CCL22, CCL25,; also recorded: CCL28, X3CL1,; also recorded: CXL10, CXL11,; also recorded: SDF1, CXL13,; also recorded: CXL14, IL8
14 | CR6604 (FYVAMFASLCFITEIA) | CXL10, CXL11, and SDF1, CXL13, and IL8
15 | CR6605 (FYVAMFASLSFITEIA) | CXL10, CXL11, and IL8
16 | CR6611 (FYVITLFASDFVLMWC) | CCL22, CCL25,; also recorded: X3CL1, CXL13
17 | CR6623 (FYYIGFYSSMFFITLM) | CCL1, CCL17,; also recorded: CCL18, CCL19,; also recorded: CCL20, CCL22,; also recorded: CCL28, X3CL1,; also recorded: CXL10, CXL11,; also recorded: SDF1, CXL14
18 | CR6624 (FYYLYVYLDIFSVVAV) | CCL15, CCL17, and CCL18, CCL19, and CCL20, CCL22, and CCL25, CCL28, and X3CL1, CXL10, and CXL11, SDF1, and CXL13, CXL14, and IL8
19 | CR6746 (GDFLAKLLNMIFSISL) | CCL20, CCL25,; also recorded: CCL28
20 | CR6836 (GFFIPLMFMIFSYTFI) | CCL22, CXL14, and IL8
21 | CR7000 (GIFFIILLTIDRYLAV) | CCL17, X3CL1,; also recorded: CXL10
22 | CR7024 (GIITSVLAWVTAILAT) | CCL2, CCL22,; also recorded: CCL28, CXL10,; also recorded: CXL11, SDF1,; also recorded: CXL13, IL8

Row | Substance | Chemokines Bound
23 | CR7344 (GMGPGPWMNILWAWFI) | CCL1, CCL11,; also recorded: CCL17, CCL18,; also recorded: CCL19, CCL2,; also recorded: CCL20, CCL22,; also recorded: CCL25, CCL8,; also recorded: X3CL1, CXL10,; also recorded: CXL11, SDF1,; also recorded: CXL14, IL8
24 | CR7367 (GMPPADEDYSPCMLET) | CCL11, CCL18,; also recorded: CCL19, CCL20
25 | CR7477 (GPGPWMNILWAWFIFW) | CCL17, CCL18, and CCL19, CCL20, and CCL25, CXL13, and IL8
26 | CR7642 (GSMLLSVLFTLYVSTL) | CCL25, CXL10,; also recorded: CXL11, CXL13
27 | CR7666 (GSVSLVNLLTIIGCLW) | CCL17, CCL20,; also recorded: CCL25
28 | CR7814 (GVVTSVITWLVAVFAS) | CCL11, CCL2, and CCL22, CCL8, and IL8
29 | CR7815 (GVVTSVITWVVAVFAS) | CCL1, CCL15,; also recorded: CCL2, CCL20,; also recorded: CCL22, CCL25,; also recorded: CCL28, CCL8,; also recorded: CXL10, CXL13
30 | CR7818 (GVWLMAIVGTFLNMLV) | CCL1, CCL18,; also recorded: CXL11, SDF1,; also recorded: CXL14
31 | CR7819 (GVWLMAIVGTFLNVLV) | CCL17, CCL18, and CCL2, CCL20, and CCL22, CXL11, and SDF1, CXL13, and IL8
32 | CR7823 (GVWLMSIVGTFLNVLV) | CCL11, CCL17, and CCL18, CCL2, and CCL8, CXL10, and CXL11, CXL14, and IL8
33 | CR7854 (GWVFIFSSIQLATVVF) | CCL1, CCL15, and CCL17, CCL19, and CCL20, CCL22, and CCL28, X3CL1, and CXL10, CXL11, and SDF1, CXL13, and IL8
34 | CR7856 (GWVFIFSSIQLCTVVF) | CCL1, CCL19, and CCL20, CCL25, and CXL10, SDF1, and IL8
35 | CR7860 (GWVLGDFLCKLLNMIF) | CCL1, CCL17, and CCL18, CCL19, and CCL2, CCL20, and CCL22, CCL28, and CCL8, CXL10, and SDF1, CXL13, and IL8
36 | CR8126 (HIGYFGGIFFIILLTI) | CCL18, CCL22, and CCL25, CXL11, and IL8
37 | CR8251 (HNKTLSFISLLILSFL) | CCL2, X3CL1, and IL8
38 | CR8339 (HRTVKLIFAIVVAYFL) | CCL28, X3CL1,; also recorded: CXL11, SDF1,; also recorded: CXL14
39 | CR8427 (HTLRMTIFCLVLPLLV) | CCL28, CXL10, and CXL11, SDF1, and IL8
40 | CR8437 (HTVLLSWKVLLTMVWG) | CCL1, CCL18,; also recorded: CCL19, CCL20,; also recorded: CXL13
41 | CR8496 (HWGWVLGDFLCKLLNM) | CCL11, CCL17, and CCL18, CCL19, and CCL20, CCL22, and CCL25, CCL28, and X3CL1, CXL10, and CXL11, SDF1, and CXL13, CXL14, and IL8
42 | CR8546 (IAAFSWFMLSLPLLFL) | CCL22, CCL28,; also recorded: CXL14
43 | CR8655 (IAVFGLLGNILVVITF) | CCL17, CCL22,; also recorded: CCL25, IL8
44 | CR8675 (IAYSLIAVFGLLGNIL) | CCL17, CCL22,; also recorded: CCL25, CCL28,; also recorded: CXL11

Row | Substance | Chemokines Bound
45 | CR8677 (IAYSLISVFGLLGNIL) | CCL2, CXL10,; also recorded: CXL13
46 | CR8784 (IFAIVVAYFLSWGPYN) | CCL1, CCL15, and CCL17, CCL18, and CCL2, CCL20, and CCL22, CCL25, and CCL28, X3CL1, and CXL10, CXL11, and SDF1, CXL14, and IL8
47 | CR8812 (IFFIILLTIDRYLAIV) | CCL18, CCL19,; also recorded: CCL22, CXL14
48 | CR8813 (IFFIILLTIDRYLAVV) | CCL17, CCL18,; also recorded: CCL20, CCL25,; also recorded: CCL28, CXL10,; also recorded: CXL11, CXL13,; also recorded: CXL14, IL8
49 | CR8966 (IFWWIFAVIIAIPHFM) | IL8
50 | CR9087 (IIALVVWGLSVIISSS) | CCL1, CCL17,; also recorded: CCL18, CCL19,; also recorded: CCL2, CCL20,; also recorded: CCL22, CCL25,; also recorded: CCL28, X3CL1,; also recorded: CXL10, CXL11,; also recorded: SDF1, CXL13,; also recorded: CXL14, IL8
51 | CR9111 (IIFSYVVVFLVAWLPY) | CCL20, CCL22,; also recorded: CCL28, CXL11,; also recorded: CXL13
52 | CR9113 (IIFSYVVVFLVSWLPY) | CCL17, CCL20, and CCL22, CCL28, and X3CL1, CXL10, and CXL11, SDF1, and CXL13, CXL14, and IL8
53 | CR9141 (IIIWALAILASMPGLY) | CCL20, CCL28,; also recorded: CXL11, SDF1
54 | CR9192 (IISLVVWGLSVIISSS) | CCL18, CXL10, and CXL13, CXL14, and IL8
55 | CR9218 (IITSVLAWVTAILATL) | CCL17, CCL18, and CXL11, CXL14, and IL8
56 | CR9282 (ILAFFAAWLPYYIGIS) | CCL11, CCL18,; also recorded: X3CL1, CXL10,; also recorded: CXL11, CXL13
57 | CR9284 (ILAFFASWLPYYIGIS) | CCL17, CCL18,; also recorded: CCL25
58 | CR9291 (ILALVGNTLALWLFIR) | CCL2, CCL22,; also recorded: CCL25, IL8
59 | CR9432 (ILMFLSDFSFIFSSWA) | CCL1, CXL10,; also recorded: CXL11, SDF1,; also recorded: CXL14, IL8
60 | CR9515: chemokine binding peptide of Table 5A used in FIG. 5 combinations (ILYQFELFGFTLIFFK) | CCL18, CCL19,; also recorded: CXL10, CXL14
61 | CR9587 (IMYSIIAFVGLLGNGL) | CCL17, CCL18,; also recorded: CCL20, CXL14
62 | CR9887 (ISLFAGVSFLINLSMD) | CCL17, CCL18,; also recorded: CCL25
63 | CR9889 (ISLLAEVLMFLFPNII) | CCL17, CCL18,; also recorded: CCL20, CCL25,; also recorded: CCL28, CXL13
64 | CR9948 (ISVAWHWVFGSFLSKM) | CCL17, CCL18, and CCL20, CCL22, and CCL25, X3CL1, and CXL11, CXL14, and IL8

same assay, conditions: log2E greater than 5, chemokines named by first part of UniProt entry name, C5a (control) binders excluded

Row | Substance | Chemokines Bound
65 | CR10008 (ITLFASDFVLMWAVFF) | CCL1, CCL22,; also recorded: CXL10, CXL11
66 | CR10175 (IVTIIITFFLSWSPYH) | CCL1, CCL17,; also recorded: CCL18, CCL20,; also recorded: CCL22, CCL25,; also recorded: CCL28, X3CL1,; also recorded: CXL10, CXL11,; also recorded: CXL14
67 | CR10275 (IYLLNLAISDLFFLLT) | CCL17, CCL18,; also recorded: CCL25, CXL10,; also recorded: CXL13
